Results: the CheMixHub viscosity set

Assay: xn = mol fraction of the nth substance listed
Conditions: 101 kPa

CC(=O)NCC(=O)O + O
viscosity [mPa·s]
Conditions	305.15 K	310.15 K	315.15 K
x1 = 3.6e-05	0.7912	0.7079	0.6523
x1 = 7.24e-05	0.7987	0.7201	0.6594
x1 = 0.000108	0.8032	0.7298	0.6613
x1 = 0.000144	0.8098	0.7307	0.6623
x1 = 0.0001823	0.8102	0.7321	0.6627
x1 = 0.000344	0.8162	0.7345	0.6658
x1 = 0.0007167	0.8254	0.7372	0.6685
x1 = 0.001025	0.8325	0.7401	0.6724
x1 = 0.001416	0.8398	0.7443	0.6751
x1 = 0.001792	0.8466	0.7473	0.6785
x1 = 0.002155	0.8523	0.7499	0.6822
x1 = 0.002607	0.8583	0.7554	0.6887
x1 = 0.003011	0.8641	0.7603	0.6933
x1 = 0.003546	0.8721	0.7654	0.6996

CCCCC(CC)COP(=O)(O)OCC(CC)CCCC (centres undefined) + CCCCCCC
viscosity [mPa·s]
Conditions	x1 = 0.0334	x1 = 0.0721	x1 = 0.1175	x1 = 0.1661	x1 = 0.2371	x1 = 0.3181	x1 = 0.4202	x1 = 0.5541	x1 = 0.7367
303.15 K	0.4827	0.6407	0.866	1.16	1.699	2.494	3.805	6.131	10.6
313.15 K	0.4218	0.5411	0.7073	0.92	1.301	1.851	2.738	4.282	7.192
323.15 K	0.3705	0.4589	0.5793	0.7299	0.9935	1.364	1.95	2.944	4.774

[Br-].[Br-].[Br-].[Sb+3] + CNc1ccccc1
323.15 K
Conditions	viscosity [mPa·s]
x1 = 0.25	21.03
x1 = 0.333	107.7
x1 = 0.4	507
x1 = 0.45	1423
x1 = 0.5	2867
x1 = 0.53	3472
x1 = 0.55	3692
x1 = 0.57	3331
x1 = 0.6	2686
x1 = 0.65	1275
